Common to all, as to assay: cells
Holding throughout (format): functional, cell-based, Homo sapiens

In one test the test system is DMS-153. As to conditions: Homo sapiens, DMS-153.
The subject of a further test is KARPAS-422. Conditions: Homo sapiens, KARPAS-422.
The test system of the next test is LU-165. As to conditions: Homo sapiens, LU-165.
Another test has as its system NB1. As to conditions: Homo sapiens, NB1.
A further test concerns NB14. As to conditions: Homo sapiens, NB14.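 Note: growth inhibition of NB14 cells measured with a cell viability assay.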
In a further test the test system is NCI-H2141. As to conditions: Homo sapiens, NCI-H2141.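 Note: growth inhibition of human NCI-H2141 cells, read out with a cell viability assay.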
The subject of a further test is NCI-H2196. As to conditions: Homo sapiens, NCI-H2196.
A further test deals with NCI-H64. As to conditions: Homo sapiens, NCI-H64.
The next test concerns SNU-16. Conditions: Homo sapiens, SNU-16.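 Note: growth inhibition of human SNU-16 cells, determined with a cell viability readout.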
The subject of a further test is BC-3. Conditions: Homo sapiens, BC-3.
Another test relates to WSU-NHL. Conditions: Homo sapiens, WSU-NHL.
The subject of the next test is EHEB. Conditions: Homo sapiens, EHEB.
The subject of a further test is COLO-792. Conditions: Homo sapiens, COLO-792.
For the next test, the system named is CaR-1. Conditions: Homo sapiens, CaR-1.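 Note: growth inhibition of human CaR-1 cancer cells, read out with a cell viability assay.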
The next test relates to Capan-2. As to conditions: Homo sapiens, Capan-2.
A further test deals with ChaGo-K-1. As to conditions: Homo sapiens, ChaGo-K-1.
The subject of another test is DMS-273. As to conditions: Homo sapiens, DMS-273.
Another test deals with FaDu. As to conditions: Homo sapiens, FaDu.
The next test deals with G-401. As to conditions: Homo sapiens, G-401.
Another test relates to GMS-10. Conditions: Homo sapiens, GMS-10.
For the next test, the system named is HCC1954. As to conditions: Homo sapiens, HCC1954.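 Note: growth inhibition of human HCC1954 cells, read out with a cell viability assay.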
The next test relates to HN. Conditions: Homo sapiens, HN.
The subject of another test is HOS. As to conditions: Homo sapiens, HOS.
The subject of a further test is HT-1080. As to conditions: Homo sapiens, HT-1080.
The next test relates to HT55. Conditions: Homo sapiens, HT55.
A further test concerns Hs-578T. Conditions: Homo sapiens, Hs-578T.
Another test relates to KYSE-180. As to conditions: Homo sapiens, KYSE-180.
The subject of another test is KYSE-450. Conditions: Homo sapiens, KYSE-450.
For a further test, the system named is MC-IXC. Conditions: Homo sapiens, MC-IXC.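 Note: growth inhibition of MC-IXC cells, read out with a cell viability assay.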
For a further test, the system named is MDA-MB-157. As to conditions: Homo sapiens, MDA-MB-157.
The next test deals with NCI-H1623. Conditions: Homo sapiens, NCI-H1623.
The next test has as its system NCI-H1693. Conditions: Homo sapiens, NCI-H1693.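 Note: growth inhibition of the human cell line, read out with a cell viability assay.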
In the next test the test system is NCI-H1703. Conditions: Homo sapiens, NCI-H1703.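 Note: growth inhibition of NCI-H1703 cells, read out via a cell viability assay.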
Another test deals with NCI-H1792. As to conditions: Homo sapiens, NCI-H1792.
In the next test the test system is NCI-H2122. As to conditions: Homo sapiens, NCI-H2122.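 Note: growth inhibition of the cells, read out with a cell viability assay.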
For the next test, the system named is NCI-H460. As to conditions: Homo sapiens, NCI-H460.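 Note: cell viability assay scoring growth inhibition of human NCI-H460 cells.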
The test system of a further test is OE19. Conditions: Homo sapiens, OE19.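 Note: growth inhibition of OE19 cells, measured through a cell viability read-out.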
Another test has as its system RVH-421. Conditions: Homo sapiens, RVH-421.
The next test has as its system SK-OV-3. As to conditions: Homo sapiens, SK-OV-3.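 Note: growth inhibition of SK-OV-3 human cells, read out with a cell viability assay.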
For a further test, the system named is SW-620. Conditions: Homo sapiens, SW-620.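 Note: growth inhibition of human SW-620 cells, measured by a cell viability assay.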
The test system of another test is T-24. As to conditions: Homo sapiens, T-24.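 Note: growth inhibition of T-24 cells, read out with a cell viability assay.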
The next test deals with A2780. As to conditions: Homo sapiens, A2780.
The subject of another test is CAL-12T. Conditions: Homo sapiens, CAL-12T.
The test system of the next test is CAL-54. As to conditions: Homo sapiens, CAL-54.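 Note: growth inhibition of CAL-54 cells, read out by a viability measurement.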
In another test the test system is UMUC3. Conditions: Homo sapiens, UMUC3.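 Note: growth inhibition of human UM-UC-3 cells, read out with a cell viability assay.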
The test system of another test is COLO-680N. As to conditions: Homo sapiens, COLO-680N.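 Note: cell viability assay used to measure inhibition of COLO-680N cell growth.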

Data on nine molecules can be found in ChEMBL document CHEMBL1201861, “Genomics of Drug Sensitity in Cancer screening data, Wellcome Trust Sanger Institute”.

Description for A2780: SANGER: Inhibition of human A2780 cell growth in a cell viability assay.
Description for BC-3: SANGER: Inhibition of human BC-3 cell growth in a cell viability assay.
Description for CAL-12T: SANGER: Inhibition of human CAL-12T cell growth in a cell viability assay.
Description for CAL-54: SANGER: Inhibition of human CAL-54 cell growth in a cell viability assay.
Description for COLO-680N: SANGER: Inhibition of human COLO-680N cell growth in a cell viability assay.
Description for COLO-792: SANGER: Inhibition of human COLO-792 cell growth in a cell viability assay.
Description for CaR-1: SANGER: Inhibition of human CaR-1 cell growth in a cell viability assay.
Description for Capan-2: SANGER: Inhibition of human Capan-2 cell growth in a cell viability assay.
Description for ChaGo-K-1: SANGER: Inhibition of human ChaGo-K-1 cell growth in a cell viability assay.
Description for DMS-153: SANGER: Inhibition of human DMS-153 cell growth in a cell viability assay.
Description for DMS-273: SANGER: Inhibition of human DMS-273 cell growth in a cell viability assay.
Description for EHEB: SANGER: Inhibition of human EHEB cell growth in a cell viability assay.
Description for FaDu: SANGER: Inhibition of human FADU cell growth in a cell viability assay.
Description for G-401: SANGER: Inhibition of human G-401 cell growth in a cell viability assay.
Description for GMS-10: SANGER: Inhibition of human GMS-10 cell growth in a cell viability assay.
Description for HCC1954: SANGER: Inhibition of human HCC1954 cell growth in a cell viability assay.
Description for HN: SANGER: Inhibition of human HN cell growth in a cell viability assay.
Description for HOS: SANGER: Inhibition of human HOS cell growth in a cell viability assay.
Description for HT-1080: SANGER: Inhibition of human HT-1080 cell growth in a cell viability assay.
Description for HT55: SANGER: Inhibition of human HT55 cell growth in a cell viability assay.
Description for Hs-578T: SANGER: Inhibition of human Hs-578-T cell growth in a cell viability assay.
Description for KARPAS-422: SANGER: Inhibition of human KARPAS-422 cell growth in a cell viability assay.
Description for KYSE-180: SANGER: Inhibition of human KYSE-180 cell growth in a cell viability assay.
Description for KYSE-450: SANGER: Inhibition of human KYSE-450 cell growth in a cell viability assay.
Description for LU-165: SANGER: Inhibition of human LU-165 cell growth in a cell viability assay.
Description for MC-IXC: SANGER: Inhibition of human MC-IXC cell growth in a cell viability assay.
Description for MDA-MB-157: SANGER: Inhibition of human MDA-MB-157 cell growth in a cell viability assay.
Description for NB14: SANGER: Inhibition of human NB14 cell growth in a cell viability assay.
Description for NCI-H1623: SANGER: Inhibition of human NCI-H1623 cell growth in a cell viability assay.
Description for NCI-H1693: SANGER: Inhibition of human NCI-H1693 cell growth in a cell viability assay.
Description for NCI-H1703: SANGER: Inhibition of human NCI-H1703 cell growth in a cell viability assay.
Description for NCI-H1792: SANGER: Inhibition of human NCI-H1792 cell growth in a cell viability assay.
Description for NCI-H2122: SANGER: Inhibition of human NCI-H2122 cell growth in a cell viability assay.
Description for NCI-H2141: SANGER: Inhibition of human NCI-H2141 cell growth in a cell viability assay.
Description for NCI-H2196: SANGER: Inhibition of human NCI-H2196 cell growth in a cell viability assay.
Description for NCI-H460: SANGER: Inhibition of human NCI-H460 cell growth in a cell viability assay.
Description for NCI-H64: SANGER: Inhibition of human NCI-H64 cell growth in a cell viability assay.
Description for OE19: SANGER: Inhibition of human OE19 cell growth in a cell viability assay.
Description for RVH-421: SANGER: Inhibition of human RVH-421 cell growth in a cell viability assay.
Description for SK-OV-3: SANGER: Inhibition of human SK-OV-3 cell growth in a cell viability assay.
Description for SNU-16: SANGER: Inhibition of human NCI-SNU-16 cell growth in a cell viability assay.
Description for SW-620: SANGER: Inhibition of human SW620 cell growth in a cell viability assay.
Description for T-24: SANGER: Inhibition of human T-24 cell growth in a cell viability assay.
Description for UMUC3: SANGER: Inhibition of human UM-UC-3 cell growth in a cell viability assay.
Description for WSU-NHL: SANGER: Inhibition of human WSU-NHL cell growth in a cell viability assay.

For the molecule `COc1cc(N2CCN(C)CC2)ccc1Nc1ncc2c(n1)N(C)c1ccccc1C(=O)N2C`, the half-inhibitory concentration (IC50) in the test with DMS-153, in the test with KARPAS-422, with LU-165, in the test on NB1, in the test with NB14 and with NCI-H2141 was > 8 µM each time. The half-inhibitory concentration (IC50) in the test on NCI-H2196, in the test with NCI-H64, in the test on SNU-16, with BC-3 and with WSU-NHL was > 8 µM throughout.
As to `OCCCNc1cc(-c2ccnc(Nc3cccc(Cl)c3)n2)ccn1`, the concentration for half-maximal inhibition (IC50) in the test on DMS-153 is > 0.256 µM; with EHEB it was 0.191 µM; in the test on KARPAS-422 it was 0.0572 µM; with LU-165 it was > 0.256 µM; in the test on NB1 it was 0.0843 µM; in the test with NB14, > 0.256 µM. Moreover, the half-inhibitory concentration (IC50) in the test on NCI-H2141 was 0.102 µM; in the test with NCI-H2196, 0.112 µM; with NCI-H64, 0.0903 µM; with SNU-16, 0.136 µM; in the test on BC-3 it was 0.0766 µM; in the test with WSU-NHL it was > 0.256 µM.
As to `Cc1ccc(-c2c(C(=O)CCl)n(CCCO)c3ncnc(N)c23)cc1`, the IC50 in the test on DMS-153, in the test with EHEB, with KARPAS-422, in the test on LU-165, in the test with NB1 and in the test with NB14 was > 4 µM in each case. The IC50 in the test with NCI-H2141, with NCI-H2196, with NCI-H64, in the test with SNU-16, in the test with BC-3 and in the test on WSU-NHL was > 4 µM throughout.
On to `C#Cc1cccc(Nc2ncnc3cc(OCCOC)c(OCCOC)cc23)c1` [ERLOTINIB], for which the 50% inhibitory concentration (IC50) with DMS-153, in the test on EHEB, with KARPAS-422, in the test on LU-165, with NB14 and with NCI-H2141 was > 2 µM throughout. In addition, the concentration for half-maximal inhibition (IC50) in the test with NCI-H2196, with NCI-H64, in the test with SNU-16, in the test with BC-3 and in the test with WSU-NHL was > 2 µM each time.
Take `COc1cc2ncn(-c3cc(OCc4ccccc4S(C)(=O)=O)c(C#N)s3)c2cc1OC` [GSK-319347A]: the IC50 in the test on DMS-153, in the test with KARPAS-422, in the test on LU-165, in the test with NB1, with NB14 and in the test on NCI-H2141 was > 5 µM each time. The IC50 in the test with NCI-H2196, in the test with NCI-H64, in the test on SNU-16, in the test on BC-3 and in the test on WSU-NHL was > 5 µM throughout.
On to `N[C@@H](CSC(c1ccccc1)(c1ccccc1)c1ccccc1)C(=O)O` [S-TRITYL-L-CYSTEINE], for which the IC50 in the test with DMS-153 was > 5.12 µM; in the test with EHEB, > 5.12 µM; in the test on KARPAS-422 it was 1.2 µM; in the test on LU-165, > 5.12 µM; with NB1, 2.94 µM; with NB14, > 5.12 µM. Besides, the concentration for half-maximal inhibition (IC50) in the test with NCI-H2141 is 4.36 µM; with NCI-H2196 it was > 5.12 µM; in the test with NCI-H64 it was 3.48 µM; with SNU-16, > 5.12 µM; with BC-3 it was 2.19 µM; in the test on WSU-NHL, > 5.12 µM.
Consider `CC[C@H](CO)Nc1nc(NCc2ccccc2)c2ncn(C(C)C)c2n1` [SELICICLIB], for which the IC50 in the test with DMS-153 was > 16 µM; with EHEB it was > 16 µM; with KARPAS-422, 9.96 µM; in the test with LU-165 it was > 16 µM; with NB1, 12.3 µM; in the test with NB14 it was > 16 µM. Further, the half-inhibitory concentration (IC50) in the test with NCI-H2141, in the test with NCI-H2196, with NCI-H64, in the test with SNU-16, in the test on BC-3 and in the test on WSU-NHL was > 16 µM in each case.
For the molecule `CCN(CC)CCNC(=O)c1c(C)[nH]c(/C=C2\C(=O)Nc3ccc(F)cc32)c1C` [SUNITINIB], the IC50 with DMS-153 was > 8 µM; in the test on EHEB it was > 8 µM; with KARPAS-422, 7.57 µM; in the test with LU-165, > 8 µM; in the test on NB1 it was 1.96 µM; in the test on NB14, > 8 µM. In addition, the IC50 with NCI-H2141 was > 8 µM; in the test with NCI-H2196 it was > 8 µM; with NCI-H64, > 8 µM; in the test on SNU-16, 1.46 µM; in the test with BC-3 it was > 8 µM; in the test with WSU-NHL, > 8 µM.
`CS(=O)(=O)c1ccc(C(=O)Nc2ccc(Cl)c(-c3ccccn3)c2)c(Cl)c1` [VISMODEGIB]: the concentration for half-maximal inhibition (IC50) with COLO-792, in the test with CaR-1, in the test on Capan-2, with ChaGo-K-1, in the test on DMS-273 and in the test with FaDu was > 10 µM throughout. In addition, the IC50 with G-401, with GMS-10, in the test on HCC1954, with HN, with HOS and with HT-1080 was > 10 µM each time. Besides, the half-inhibitory concentration (IC50) in the test with HT55, with Hs-578T, in the test with KYSE-180, with KYSE-450, in the test with MC-IXC and in the test on MDA-MB-157 was > 10 µM throughout. The concentration for half-maximal inhibition (IC50) with NB14, in the test with NCI-H1623, in the test with NCI-H1693, in the test with NCI-H1703, in the test with NCI-H1792 and in the test with NCI-H2122 was > 10 µM throughout. Further, the IC50 with NCI-H460, in the test with OE19, in the test with RVH-421, with SK-OV-3, in the test with SW-620 and in the test on T-24 was > 10 µM each time. The 50% inhibitory concentration (IC50) in the test with A2780, in the test on CAL-12T, with CAL-54, with UMUC3 and with COLO-680N was > 10 µM throughout.

As usually defined, the IC50 is the midpoint of a concentration-inhibition curve. Lower therefore signals inhibition by little substance.
